Columns and labels:
[1] = system: mammalian dihydrofolate reductase; conditions: Grivsky et al., J. Med. Chem., 23, 327 (1980); cited from earlier work
[2] = system: hypertensive rat; conditions: L. R. Bennett et al, J. Med. Chem., 24, 382 (1981); cited from earlier work
[3] = system: thymidylate synthetase; conditions: background; cited from earlier work
[4] = system: lymphocytic leukemia P388; experiment: Activity against lymphocytic leukemia P388 in mice; format: in vivo, mouse (CDF1 mice); conditions: ip, qd 1-5 days, 10^6 P388 cells ip, CDF1 mice
[5] = system: Human epidermoid carcinoma cell No. 2; experiment: Cell culture cytotoxicity, inhibition of colony formation after 12 days; format: cell-based; conditions: 288 h, colony formation after 12 days in plastic flask, read-out: ED50 (concentration inhibiting colony formation by 50%)
Excerpt: ^a Human epidermoid carcinoma cell No. 2.
^c Concentrations inhibiting colony formation by 50% after 12 days as
determined in plastic flask.

[6] = system: dihydrofolate reductase; conditions: background; cited from earlier work

SMILES: COc1ccc(OC)c(Cc2cnc3nc(N)nc(N)c3c2C)c1
- inhibition of mammalian dihydrofolate reductase [1]: potent lipid-soluble inhibitor of mammalian dihydrofolate reductase

SMILES: Cc1ncc2cc(-c3c(Cl)cccc3Cl)c(N)nc2n1
- blood pressure in the hypertensive rat [2]: lowered blood pressure

SMILES: C#CCN(Cc1ccc2nc(N)nc(O)c2c1)c1ccc(C(=O)N[C@@H](CCC(=O)O)C(=O)O)cc1 [5,8-dideaza-10-propargylfolic acid, N-[4-[N-[(2-amino-4-hydroxy-6-quinazolinyl)methyl]prop-2-ynylamino]benzoyl]-L-glutamic acid]
- inhibition of thymidylate synthetase [3]: potent inhibitor of thymidylate synthetase

SMILES: CN(Cc1cnc2nc(N)[nH]c(=O)c2c1)c1ccc(C(=O)N[C@@H](CCC(=O)O)C(=O)O)cc1 [I (R = CH3), N-[4[[(2-amino-4(3H)-oxopyrido[2,3-d]-pyrimidin-6-yl)methyl]methylamino]benzoyl]-L-glutamic acid]
- % ILS ([4]; 200 mg/kg): 11%
- IC50 [5]: 11200 nM

SMILES: Nc1nc2ncc(CNc3ccc(C(=O)N[C@@H](CCC(=O)O)C(=O)O)cc3)cc2c(=O)[nH]1 [I (R = H), N-[4-[(2-Amino-4(3H)-oxopyrido[2,3-d]pyrimidin-6-yl)methylamino]benzoyl]-L-glutamic Acid]
- % ILS ([4]; 100 mg/kg): 17%
- IC50 [5]: 6100 nM

SMILES: CN(Cc1cnc2nc(N)nc(N)c2c1)c1ccc(C(=O)N[C@@H](CCC(=O)O)C(=O)O)cc1 [II (R = CH3), N-[4-[[(2,4-Diaminopyrido[2,3-d]pyrimidine-6-yl)methyl]methylamino]benzoyl]-L-glutamic acid]
- 30th day survivor ([4]; 4 mg/kg): One
- % ILS ([4]; 4 mg/kg): 92%
- IC50 [5]: 4 nM

SMILES: Nc1nc(N)c2cc(CNc3ccc(C(=O)N[C@@H](CCC(=O)O)C(=O)O)cc3)cnc2n1 [II (R = H), N-[4-[(2,4-Diaminopyrido[2,3-d]pyrimidine-6-yl)methylamino]benzoyl]-L-glutamic acid]
- IC50 [5]: 13 nM

SMILES: CN(Cc1cnc2nc(N)nc(N)c2n1)c1ccc(C(=O)N[C@@H](CCC(=O)O)C(=O)O)cc1 [Methotrexate, reference compound]
- inhibition of dihydrofolate reductase [6]: Powerful dihydrofolate reductase inhibitors
- IC50 [5]: 1 nM

SMILES: CCOC(=O)CC[C@H](NC(=O)c1ccc(NCc2cnc3nc(N)nc(N)c3c2)cc1)C(=O)OCC [VII (R = H; R1 = C2 H5), Diethyl N-[4-[(2,4-diaminopyrido[2,3-d]pyrimidine-6-yl)methylamino]benzoyl]-L-glutamate]
- % ILS ([4]; 1 mg/kg): 118%
- IC50 [5]: 52 nM

Reference: US4628089A, “Pyrido(2,3-D)pyrimidines” (Southern Research Institute, priority 1985, dated 1986)
